Here are results for one compound from US20180289655A1, “Methods and Compositions for the Intravenous Administration of Fumarates for the Treatment of Neurological Diseases” (Biogen MA Inc., priority 2015, published 2018).

The structures appear in SMILES notation. Entries after “also recorded” stand apart in the source; their conditions may differ. Where a name gives a salt, the structure may show the parent alone. Read-outs that look alike come from different tables or passages of the source.

A short description of data set [1]: MMF exposure in malonate model 30 min after last oral dose of DMF. In kind it is in vivo, Sprague-Dawley rats. The conditions noted are these: 30 minutes after last oral dose of DMF, all doses. As to the method: The study and blank brain samples was transferred into Tissue Tubes (TT1) (purchased from Covaris, Inc) and attached to a borosilicate glass tube and placed on dry ice for a minimum of 15 minutes. The samples were pulverized using the Cryoprep System (Covaris Inc.) and transferred to glass tube prior to homogenization. For every 1 part (i.e. 100 mg) of tissue, 2 parts (i.e. 200 μL) of water with 15 mg/mL NaF was added to each glass tube. The tissues were homogenized at 4° C. using Covaris E210 for approximately 3 minutes per sample. The Covaris settings were as follows: Duty Cycle 20%, Intensity 10, and Cycles/Burst 1000. After homogenization […] acetonitrile was added to each glass tube, which was equal to the volume of water added in previously. The homogenates were homogenized with the E210 for an additional 30 sec per sample. […]
Study plasma samples were on ice. […] A 50 μL aliquot of sample (study samples, blank control, calibration standard or QC sample) was manually transferred into a 96-well plate according to a pre-determined layout. […]
The HPLC system used consisted of an Agilent 1200 binary pump with a Leap CTC PAL refrigerated autosampler. […] The instrument was equipped with TIS source in negative mode and the analyte was monitored in the MRM mode. […] The concentrations for unknown samples were calculated against Standards. […]

Data set [2] can be described thus: Solubility of DMF in aqueous media at 37° C. The format is physicochemical. The conditions noted are these: thermodynamic from solid.
Data set [3] relates to malonate-induced striatal lesion in rats. The data set is described as follows: Immunofluorescence microscopy (NeuN, GFAP) of lesioned rat brain sections. The conditions noted are these: DMF p.o. 100 mg/kg and vehicle. In kind it is in vivo, Sprague-Dawley rats. Here is the method:
For tissue to be analyzed by immunofluorescence, animals were anesthetized and transcardially perfused with 4% paraformaldehyde. Brains were removed and post-fixed overnight at 4° C. Tissue was then transferred to 30% sucrose in PBS. Serial 25-μM frozen sections were cut in the coronal plane and air-dried onto gelatin-coated glass slides. All tissue sections were washed in PBS and blocked with 5% normal goat serum in solution with 0.1% Triton X-100/PBS for 45 minutes at room temperature. Sections were then incubated with monoclonal anti-NeuN (1:500; Millipore, Temecula, Calif., USA) for neurons and polyclonal anti-glial fibrillary acidic protein (GFAP) (1:600) for astrocytes in blocking solution overnight at 4° C. Secondary antibody incubations were for 1 hour at room temperature. All immunofluorescence images were acquired with Openlab and Spectrum software.

Data set [4] is described as follows: Tail histopathology after 5 days of once daily DMF IV tail vein dosing. The format is in vivo, Sprague-Dawley rats. The conditions noted are these: 5 days of repeated once daily tail vein injections.

In general, solubility refers to how much of the substance goes into solution per volume. With `COC(=O)/C=C/C(=O)OC` [DMF, dimethyl fumarate], in data set [1], the “MMF concentration in plasma, brain and CSF” value was “significantly higher in the plasma as compared to both, the Brain and the CSF; also recorded: dose-dependent increase in plasma, CSF and brain concentration of MMF”. Also, the solubility at 24 h is 3770 µg/mL in data set [2] (pH 2 citrate buffer, pH 2, aqueous buffer, pH 2 Citrate Buffer, pH 1.93, read-out: Solubility); 1000 to 10000 µg/mL in data set [2] (pH 2 citrate buffer, pH 2, aqueous buffer, pH 2 Citrate Buffer, read-out: Solubility Description); 3320 µg/mL in data set [2] (pH 4 citrate buffer, pH 4, aqueous buffer, pH 4 Citrate Buffer, pH 3.89, read-out: Solubility); 1000 to 10000 µg/mL in data set [2] (pH 4 citrate buffer, pH 4, aqueous buffer, pH 4 Citrate Buffer, read-out: Solubility Description); 3470 µg/mL in data set [2] (pH 6 citrate buffer, pH 6, aqueous buffer, pH 6 Citrate Buffer, pH 6.01, read-out: Solubility); 1000 to 10000 µg/mL in data set [2] (pH 6 citrate buffer, pH 6, aqueous buffer, pH 6 Citrate Buffer, read-out: Solubility Description). Besides, the solubility at 24 h in data set [2] (pH 8 borate buffer, pH 8, aqueous buffer, pH 8 Borate Buffer, pH 5.44, read-out: Solubility) was 4020 µg/mL; in data set [2] (pH 8 borate buffer, pH 8, aqueous buffer, pH 8 Borate Buffer, read-out: Solubility Description), 1000 to 10000 µg/mL; in data set [2] (pH 10 borate buffer, pH 10, aqueous buffer, pH 10 Borate Buffer, pH 5.49, read-out: Solubility), 3570 µg/mL; in data set [2] (pH 10 borate buffer, pH 10, aqueous buffer, pH 10 Borate Buffer, read-out: Solubility Description) it was 1000 to 10000 µg/mL; in data set [2] (simulated gastric fluid (SGF, without pepsin), pH 6.9, simulated gastric fluid, SGF (without pepsin), pH 6.90, read-out: Solubility), 2950 µg/mL; in data set [2] (simulated gastric fluid without pepsin, pH 1.2, simulated gastric fluid, SGF (without pepsin), read-out: Solubility Description), 1000 to 10000 µg/mL. Also, the solubility at 24 h in data set [2] (simulated intestinal fluid (SIF, without pancreatin), pH 1.2, fassgf or other biorelevant, SIF (without pancreatin), pH 1.20, read-out: Solubility) is 3110 µg/mL; in data set [2] (simulated intestinal fluid without pancreatin, pH 6.9, fassgf or other biorelevant, SIF (without pancreatin), read-out: Solubility Description), 1000 to 10000 µg/mL; in data set [2] (water, pH 5.2, water, Water, pH 5.20, read-out: Solubility) it was 2840 µg/mL; in data set [2] (water, pH 5.2, water, Water, read-out: Solubility Description) it was 1000 to 10000 µg/mL. The “Astrocytes (GFAP) near the lesion border” value in data set [3] was “Astrocytes appear to survive in both vehicle and DMF treated animals”. Also, in data set [4], the “Histopathology findings in the tail” value is given as “no treatment-related histopathology findings in the tail”.
